Assay results reported in US11771765B2, “Light augmented treatment method” (The Procter & Gamble Company, priority 2019, dated 2023).
Like-named read-outs stand apart in the source and are kept apart here.

Columns and labels:
[1] = test system: M. furfur CBS 7982; test: Fractional Inhibitor Concentration (FIC): antimicrobial plus 409 nm light on M. furfur growth; type: cell-based, Malassezia furfur; conditions: for shortest light exposure time when applied in combination to give growth inhibition: 409 nm light, with the lowest inhibiting concentration; for growth, OD 600 nm: 16 h growth; for lowest concentration to give growth inhibition: antimicrobial alone, no light; for lowest concentration to give growth inhibition / lowest concentration when applied in combination with light to give growth inhibition: inhibition = OD <=50% of untreated control; for FIC value / Combinatorial Effect: antimicrobial plus 409 nm light; for Combinatorial Effect: classified by FIC value; for lowest concentration when applied in combination with light to give growth inhibition: with 409 nm light
Protocol: Fractional Inhibitor Concentration (FIC) is a conventional methodology for evaluating the interaction of two antimicrobial chemicals. […] In an embodiment of the present invention, FIC is used to determine combinatorial effects of one chemical and exposure to light on Malassezia growth and/or viability in an in vitro system.
• 1. M. furfur CBS 7982 cells are exposed to a varying concentrations of an antimicrobial active (e.g. ZPT, Piroctone Olamine) for a specified amount of time (e.g. 2 min to 3 hours). • 2. After exposure, the antimicrobial is washed away by centrifugation of the cells and a series of washes • 3. Cells are then exposed to light at a wavelength of 409 nm for varying lengths of time • 4. Cells are then allowed to grow up overnight (e.g. 17 h) to determine the impact of the treatment on viability and growth of the organism by measuring OD600 II. Data Analysis: • 1. Inhibition of growth is determined to be where the OD value obtained is <=50% of the untreated control • 2. The lowest concentration value of the antimicrobial agent which inhibits growth is determined • 3. Likewise, the shortest light exposure time is determined that gives growth inhibition • 4. Finally, the combination of the lowest concentration of the antimicrobial and the shortest light exposure time that provides growth inhibition is determined • 5. The FIC value is determined using the calculation below:
[formula] • 6. The combinatorial effect of the antimicrobial and light is classified according to the chart below: […]
(§1) M. furfur is incubated for one hour with varying concentrations of Piroctone Olamine. Cell pellets are collected by centrifugation so that most of the anti-fungal material has been removed. The cell pellet is suspended in PBS and 500 uL samples are distributed to four 12 well plates and treated with light (409 nm) for 1, 10 or 60 minutes or stored in the dark. Samples are then diluted into mDixon, and incubated for 16 h with subsequent growth measured by OD 600 nm.
as §1, with “Hinokitiol.” for “Piroctone Olamine.”, “27” for “16”, “nm. […]” for “nm.”

[2] = test system: protoporphyrin IX (PPIX); test: Protoporphyrin IX levels in treated M. furfur cells by HPLC; type: cell-based; conditions: increasing concentrations
Text: PPIX absorb light in the 400 nm range, and when light is absorbed, PPIX transitions to an excited triplet state that can react with triplet oxygen to produce singlet oxygen or the excited porphyrin can generate ROS through single electron processes. These reactive species result in a loss of cell viability.
M. furfur cells are exposed to other antifungals that are not considered chelators (i.e. selenium sulfide (SeSx), Sulfur, Climbazole, and Terbinafine). After treatment, cells are then exposed to light, or not exposed to light. Both OD are measured to measure growth and PPIX levels are measured.

[3] = test system: S. cerevisiae BY4741; conditions: for 17 h growth: YNB Ethanol
Protocol: Cells are grown in the medium of choice, generally one requiring respiration. In the case of Malassezia furfur that medium is modified Dixon medium (mDixon) (per one liter: 36 g malt extract (Difco 0186-17), 20 g ox bile (provided by American Laboratories, Inc., of Omaha, Nebraska, as Lot No. 03130792), 10 ml Tween 40 (Aldrich 27435-6), 6 g peptone (Difco 0118-17), 2 ml oleic acid (Baker 2114-01), and 2 ml glycerol (Sigma G-7893)). [Candida and YPG, Saccharomyces and YNB (without amino acids) to which we added 40 μg/ml each of uracil, histidine, and methionine plus 130 μg/ml leucine and 2% ethanol and 0.1% yeast extract.] Conventional medium may also be used for other microbials. Starting cultures are prepared by diluting a fresh overnight culture that is out of log phase 1:100 and incubating with shaking at 31° C. in a 250 mL shake flask (Corning, 431144) with 20 mL medium shaking at 200-250 rpm for about 3 hours to ensure the cells had returned to growth phase. At this time, the test agent is added to the flasks to afford the final concentration for testing. The cells are cultured for 1 hour with the test agent. At this time, the cells typically have an OD at 600 nm in the range of 0.25 to 0.8. Generally, we isolate 2.5 OD*mLs of cells calculated as desired OD*mLs divided by the OD600 of the cells. These media samples are centrifuged (Beckman Coulter Allegra™ 6KR centrifuge) 10 minutes at RT at 3200 rpm to pellet the cells. The supernatant is poured off and the tubes are set upside down on a folded paper towel to drain off the remains of media. Two and one half milliliters of PBS (Gibco, pH 7.4, without magnesium chloride or calcium chloride, 14190-144) is added and the cells resuspended. One mL of cells is transferred to each of two 12-well plates (Falcon, polystyrene, 353043). One plate is stored in the dark and the other is exposed to the light with the plate cover on the plate. […] When the light exposure is completed, the samples are mixed by slowly vortexing or pipetting and 0.65 mL of each sample is transferred to 13 mL of medium for overnight growth at 31° C. with shaking. The following morning, typically 18 hours later, the ODs at 600 nm are determined. Successful materials are those that show at least a 50% reduction in growth after light exposure relative to a dark sample.
S. cerevisiae is exposed to light from LED flashlights of the indicated wavelength as well as a painter's light/worklight, commonly found at a hardware store, which provides a broad spectrum of wavelengths of light. Yeast has been pretreated as indicated, prior to light exposure.

Cc1cc(CC(C)CC(C)(C)C)n(O)c(=O)c1.NCCO (stereo not drawn) [Piroctone Olamine, 1-Hydroxy-4-methyl-6-(2,4,4-trimethylpentyl)-2-pyridone monoethanolamine salt]
shortest light exposure time when applied in combination to give growth inhibition [1]: 1 min
growth, OD 600 nm ([1]; Piroctone Olamine 4 ppm 1 h, 409 nm light 0 min): 3.6
growth, OD 600 nm ([1]; Piroctone Olamine 4 ppm 1 h, 409 nm light 1 min): 4.1
growth, OD 600 nm ([1]; Piroctone Olamine 4 ppm 1 h, 409 nm light 10 min): 3.9
growth, OD 600 nm ([1]; Piroctone Olamine 4 ppm 1 h, 409 nm light 60 min): 3.7
growth, OD 600 nm ([1]; Piroctone Olamine 8 ppm 1 h, 409 nm light 0 min): 3.9
growth, OD 600 nm ([1]; Piroctone Olamine 8 ppm 1 h, 409 nm light 1 min): 0.1
growth, OD 600 nm ([1]; Piroctone Olamine 8 ppm 1 h, 409 nm light 10 min): 0.0
growth, OD 600 nm ([1]; Piroctone Olamine 8 ppm 1 h, 409 nm light 60 min): 0.0
growth, OD 600 nm ([1]; Piroctone Olamine 16 ppm 1 h, 409 nm light 0 min): 2.6
growth, OD 600 nm ([1]; Piroctone Olamine 16 ppm 1 h, 409 nm light 1 min): 0.1
growth, OD 600 nm ([1]; Piroctone Olamine 16 ppm 1 h, 409 nm light 10 min): 0.0
growth, OD 600 nm ([1]; Piroctone Olamine 16 ppm 1 h, 409 nm light 60 min): 0.0
growth, OD 600 nm ([1]; Piroctone Olamine 32 ppm 1 h, 409 nm light 0 min): 2.1
growth, OD 600 nm ([1]; Piroctone Olamine 32 ppm 1 h, 409 nm light 1 min): 0.2
growth, OD 600 nm ([1]; Piroctone Olamine 32 ppm 1 h, 409 nm light 10 min): 0.0
growth, OD 600 nm ([1]; Piroctone Olamine 32 ppm 1 h, 409 nm light 60 min): 0.0
growth, OD 600 nm ([1]; Piroctone Olamine 64 ppm 1 h, 409 nm light 0 min): 1.3
growth, OD 600 nm ([1]; Piroctone Olamine 64 ppm 1 h, 409 nm light 1 min): 0.1
growth, OD 600 nm ([1]; Piroctone Olamine 64 ppm 1 h, 409 nm light 10 min): 0.0
growth, OD 600 nm ([1]; Piroctone Olamine 64 ppm 1 h, 409 nm light 60 min): 0.0
lowest concentration to give growth inhibition [1]: 64 ppm
FIC value [1]: 0.14
Combinatorial Effect [1]: synergistic
lowest concentration when applied in combination with light to give growth inhibition [1]: 8 ppm
PPIX levels [2]: increased levels of PPIX

[O-]n1ccccc1=S.[O-]n1ccccc1=S.[Zn+2] [ZPT, zinc salt of 1-hydroxy-2-pyridinethione]
17 h growth ([3]; 0.8 ppm, 395 nm light): 0.7205
17 h growth ([3]; 0.8 ppm, 520 nm light): 1.418
17 h growth ([3]; 0.8 ppm, 580 nm light): 1.332
17 h growth ([3]; 0.8 ppm, Broad Spectrum light): 0.525
17 h growth ([3]; 0.8 ppm, Dark): 1.5185
17 h growth ([3]; 1.6 ppm, 395 nm light): 0.3435
17 h growth ([3]; 1.6 ppm, 520 nm light): 1.3615
17 h growth ([3]; 1.6 ppm, 580 nm light): 0.9245
17 h growth ([3]; 1.6 ppm, Broad Spectrum light): 0.303
17 h growth ([3]; 1.6 ppm, Dark): 1.525
sensitivity of treated yeast to light ([3]; ZPT-treated, LED flashlights 395, 520, 580 nm): sensitive to a 395 nm flashlight, but not two other wavelengths of light
shortest light exposure time when applied in combination to give growth inhibition [1]: 2 min
growth, OD 600 nm ([1]; ZPT 1.25 ppm 3 h, 409 nm light 0 min): 7.76
growth, OD 600 nm ([1]; ZPT 1.25 ppm 3 h, 409 nm light 2 min): 7.24
growth, OD 600 nm ([1]; ZPT 1.25 ppm 3 h, 409 nm light 10 min): 6.24
growth, OD 600 nm ([1]; ZPT 1.25 ppm 3 h, 409 nm light 60 min): 1.96
growth, OD 600 nm ([1]; ZPT 2.5 ppm 3 h, 409 nm light 0 min): 7.12
growth, OD 600 nm ([1]; ZPT 2.5 ppm 3 h, 409 nm light 2 min): 3.35
growth, OD 600 nm ([1]; ZPT 2.5 ppm 3 h, 409 nm light 10 min): 0.31
growth, OD 600 nm ([1]; ZPT 2.5 ppm 3 h, 409 nm light 60 min): 0.03
growth, OD 600 nm ([1]; ZPT 5 ppm 3 h, 409 nm light 0 min): 6.21
growth, OD 600 nm ([1]; ZPT 5 ppm 3 h, 409 nm light 2 min): 5.30
growth, OD 600 nm ([1]; ZPT 5 ppm 3 h, 409 nm light 10 min): 3.72
growth, OD 600 nm ([1]; ZPT 5 ppm 3 h, 409 nm light 60 min): 0.87
growth, OD 600 nm ([1]; ZPT 10 ppm 3 h, 409 nm light 0 min): 4.85
growth, OD 600 nm ([1]; ZPT 10 ppm 3 h, 409 nm light 2 min): 4.91
growth, OD 600 nm ([1]; ZPT 10 ppm 3 h, 409 nm light 10 min): 4.06
growth, OD 600 nm ([1]; ZPT 10 ppm 3 h, 409 nm light 60 min): 0.83
growth, OD 600 nm ([1]; ZPT 20 ppm 3 h, 409 nm light 0 min): 0.51
growth, OD 600 nm ([1]; ZPT 20 ppm 3 h, 409 nm light 2 min): 0.58
growth, OD 600 nm ([1]; ZPT 20 ppm 3 h, 409 nm light 10 min): 0.64
growth, OD 600 nm ([1]; ZPT 20 ppm 3 h, 409 nm light 60 min): 0.37
lowest concentration to give growth inhibition [1]: 10 ppm
FIC value [1]: 0.28
Combinatorial Effect [1]: synergistic
lowest concentration when applied in combination with light to give growth inhibition [1]: 2.5 ppm
PPIX levels [2]: increased levels of PPIX
